Assay results taken from US20230286930A1, “N -SUBSTITUTED 4-(1,3-ARYLOXAZOLO-2-YL)PHENYL COMPOUNDS FOR THE TREATMENT AND PROPHYLAXIS OF HEPATITIS B VIRUS INFECTION” (Hoffmann-La Roche Inc., priority 2020, published 2023).
pIC50: −log10 of the molar value.

Columns and labels:
HBsAg = test: PHH natural infection assay, HBsAg (alphalisa); assay type: cell-based, HBV; conditions: Hepatitis B virus, read-out: HBsAg IC50
Protocol: (§1) Detailed procedures regarding primary human hepatocyte (PHH) HBV natural infection assay are described as below. One tube of frozen PHH (10 million cells) is thawed in 37° C. water bath and then transferred to 20 mL of PHH thawing medium (Sigma, InVitroGRO HT Medium, Cat. S03319) with gently mixing. The cells were then centrifuged at […] for 5 min, the supernatant was discarded and the tube was refilled with 25 mL of PHH plating medium (Sigma, InVitroGRO CP Medium, Cat. S03317). The tube was shaken very gently to re-suspend all cells, and then 50 μL of cells were transferred to each well 384-well collagen I coated plate with appropriate liquid handling equipment, e.g. Integra VIAFLO384 or Agilent Bravo. The cells were then cultured for 24 hours in a cell incubator. For HBV infection, after PHH attachment on the culture plate, the plating medium was removed and replenished with PHH culture medium containing HBV virus. The PHH culture medium was prepared with Dulbecco's Modified Eagle Medium (DMEM)/F12 (1:1 in volume ratio) containing 10% fetal bovine serum (Gibco, Cat. 10099141), 5 ng/mL human epidermal growth factor (Gibco, Cat.PHG0311L), 20 ng/mL dexamethasone (Sigma, Cat.D4902-100 mg), 250 ng/mL human recombinant insulin (Gibco, Cat.41400045) and 100 U/mL penicillin. HBV virus at 200 genome equivalent (GE) per cell with 4% PEG8000 (Sigma, Cat.P1458) containing culture medium were added to the PHH culture medium for infection. The cells were then cultured for 24 hours in cell incubator. Then the cell culture supernatant was removed. The HBV-infected PHH were cultured with sandwich culture method with PHH culture medium containing 1% DMSO and 0.25 mg/mL matrix gel for 72 hours. The supernatant was then refreshed with PHH culture medium containing different concentrations of testing compounds for two times with 72-hour interval. At the end of treatment, the supernatant was collected for viral markers measurements, including HBsAg, HBeAg, HBV DNA and cytotoxicity. HBsAg and HBeAg were detected using alphalisa method using their specific antibodies. For HBV DNA detection, HBV DNA Quantitative Fluorescence Diagnostic Kit (Sansure Biotech Inc.) was used following the manufacture's protocol. Cytotoxicity was determined using Cell Counting Kit-8 (CCK8, Dojindo Molecular Technologies, Inc.).
(§2) The compounds of the present invention were tested for their capacity to inhibit HBsAg and HBeAg as described herein.

HBeAg = test: PHH natural infection assay, HBeAg (alphalisa); assay type: cell-based, HBV; conditions: Hepatitis B virus, read-out: HBeAg IC50
Protocol: as §1, §2

[1] = PHH natural infection assay, cytotoxicity (Cell Counting Kit-8); assay type: cell-based; conditions: human
Protocol: as §1

| Compound | pIC50 (HBsAg) | pIC50 (HBeAg) | CC50 at 144 h [1] |
| --- | --- | --- | --- |
| O=C(Nc1ccc(-c2nc3cccc(F)c3o2)cc1)C1COC1 [Example 29, N-[4-(7-fluoro-1,3-benzoxazol-2-yl)phenyl]oxetane-3-carboxamide] | 5.86 | 5.84 | > 100000 nM |
| O=C(Nc1ccc(-c2nc3cccc(F)c3o2)cc1)C1CCSCC1 [Example 30, N-[4-(7-fluoro-1,3-benzoxazol-2-yl)phenyl]tetrahydrothiopyran-4-carboxamide] | 5.83 | 5.83 | > 100000 nM |
| O=C(Nc1ccc(-c2nc3cccc(F)c3o2)cc1)C1CS(=O)(=O)C1 [Example 31, N-[4-(7-fluoro-1,3-benzoxazol-2-yl)phenyl]-1,1-dioxo-thietane-3-carboxamide] | 5.82 | 5.64 | > 100000 nM |
| CC1(C(=O)Nc2ccc(-c3nc4cccc(F)c4o3)cc2)CC1 [Example 32, N-[4-(7-fluoro-1,3-benzoxazol-2-yl)phenyl]-1-methyl-cyclopropanecarboxamide] | 5.82 | 5.94 | > 100000 nM |
| O=C(Nc1ccc(-c2nc3cccc(F)c3o2)cc1)C1C2COCC21 (stereo not drawn) [Example 33, N-[4-(7-fluoro-1,3-benzoxazol-2-yl)phenyl]-3-oxabicyclo[3.1.0]hexane-6-carboxamide] | 5.80 | 5.96 | > 100000 nM |
| CC1(C(=O)Nc2ccc(-c3nc4cccc(F)c4o3)cc2)CCC1 [Example 34, N-[4-(7-fluoro-1,3-benzoxazol-2-yl)phenyl]-1-methyl-cyclobutanecarboxamide] | 5.79 | 5.75 | > 100000 nM |
| CC1(C(=O)Nc2ccc(-c3nc4cccc(F)c4o3)cc2)CCCO1 (stereo not drawn) [Example 35, N-[4-(7-fluoro-1,3-benzoxazol-2-yl)phenyl]-2-methyl-tetrahydrofuran-2-carboxamide] | 5.78 | 5.73 | > 100000 nM |
| CC(=O)OC1(C(=O)Nc2ccc(-c3nc4cccc(F)c4o3)cc2)CC1 [Example 36, [1-[[4-(7-fluoro-1,3-benzoxazol-2-yl)phenyl]carbamoyl]cyclopropyl] acetate] | 5.56 | 5.58 | > 100000 nM |
| O=C(Nc1ccc(-c2nc3cccc(F)c3o2)cc1)OC1CCOC1 (stereo not drawn) [Example 37, tetrahydrofuran-3-yl N-[4-(7-fluoro-1,3-benzoxazol-2-yl)phenyl]carbamate] | 5.46 | 5.37 | > 100000 nM |
| COC(=O)C12CC(C(=O)Nc3ccc(-c4nc5cccc(F)c5o4)cc3)(C1)C2 [Example 38, methyl 3-[[4-(7-fluoro-1,3-benzoxazol-2-yl)phenyl]carbamoyl]bicyclo[1.1.1]pentane-1-carboxylate] | 5.43 | 5.40 | > 100000 nM |
| CCC1(C(=O)Nc2ccc(-c3nc4cccc(F)c4o3)cc2)COC1 [Example 39, 3-ethyl-N-[4-(7-fluoro-1,3-benzoxazol-2-yl)phenyl]oxetane-3-carboxamide] | 5.20 | 5.05 | > 100000 nM |
| O=C(Nc1ccc(-c2nc3c(F)cccc3o2)cc1)c1ncco1 [Example 40, N-[4-(4-fluoro-1,3-benzoxazol-2-yl)phenyl]oxazole-2-carboxamide] | 6.77 | 6.48 | > 100000 nM |
| Cc1cnc(C(=O)Nc2ccc(-c3nc4c(F)cccc4o3)cc2)o1 [Example 41, N-[4-(4-fluoro-1,3-benzoxazol-2-yl)phenyl]-5-methyl-oxazole-2-carboxamide] | 6.38 | 6.28 | > 100000 nM |
| O=C(Nc1ccc(-c2nc3c(F)cccc3o2)cc1)c1ccccn1 [Example 42, N-[4-(4-fluoro-1,3-benzoxazol-2-yl)phenyl]pyridine-2-carboxamide] | 6.34 | 6.28 | > 100000 nM |
| Cc1coc(C(=O)Nc2ccc(-c3nc4c(F)cccc4o3)cc2)n1 [Example 43, N-[4-(4-fluoro-1,3-benzoxazol-2-yl)phenyl]-4-methyl-oxazole-2-carboxamide] | 5.96 | 5.97 | > 100000 nM |
| O=C(Nc1ccc(-c2nc3c(F)cccc3o2)cc1)c1nccs1 [Example 44, N-[4-(4-fluoro-1,3-benzoxazol-2-yl)phenyl]thiazole-2-carboxamide] | 5.88 | 5.89 | > 100000 nM |

| Compound | pIC50 (HBsAg) | pIC50 (HBeAg) | CC50 at 144 h [1] |
| --- | --- | --- | --- |
| Cc1ncc(C(=O)Nc2ccc(-c3nc4c(F)cccc4o3)cc2)o1 [Example 45, N-[4-(4-fluoro-1,3-benzoxazol-2-yl)phenyl]-2-methyl-oxazole-5-carboxamide] | 5.87 | 5.87 | > 100000 nM |
| O=C(Nc1ccc(-c2nc3c(F)cccc3o2)cc1)c1cccnc1 [Example 46, N-[4-(4-fluoro-1,3-benzoxazol-2-yl)phenyl]pyridine-3-carboxamide] | 5.65 | 5.34 | > 100000 nM |
| O=C(Nc1ccc(-c2nc3c(F)cccc3o2)cc1)C12CC(C1)C2 [Example 47, N-[4-(4-fluoro-1,3-benzoxazol-2-yl)phenyl]bicyclo[1.1.1]pentane-1-carboxamide] | 5.99 | 5.92 | > 100000 nM |
| O=C(Nc1ccc(-c2nc3c(F)cccc3o2)cc1)C12CC(F)(C1)C2 [Example 48, 3-fluoro-N-[4-(4-fluoro-1,3-benzoxazol-2-yl)phenyl]bicyclo[1.1.1]pentane-1-carboxamide] | 6.12 | 6.01 | > 100000 nM |
| CC(C)(O)C(=O)Nc1ccc(-c2nc3c(F)cccc3o2)cc1 [Example 49, N-[4-(4-fluoro-1,3-benzoxazol-2-yl)phenyl]-2-hydroxy-2-methyl-propanamide] | 6.21 | 6.28 | > 100000 nM |
| O=C(Nc1ccc(-c2nc3c(F)cccc3o2)cc1)C1CCS(=O)(=O)C1 (stereo not drawn) [Example 50, N-[4-(4-fluoro-1,3-benzoxazol-2-yl)phenyl]-1,1-dioxo-thiolane-3-carboxamide] | 5.92 | 5.82 | > 100000 nM |
| CC1(C(=O)Nc2ccc(-c3nc4c(F)cccc4o3)cc2)COC1 [Example 51, N-[4-(4-fluoro-1,3-benzoxazol-2-yl)phenyl]-3-methyl-oxetane-3-carboxamide] | 5.94 | 5.91 | > 100000 nM |
| CC(O)C(=O)Nc1ccc(-c2nc3c(F)cccc3o2)cc1 (stereo not drawn) [Example 52, N-[4-(4-fluoro-1,3-benzoxazol-2-yl)phenyl]-2-hydroxy-propanamide] | 5.76 | 5.75 | > 100000 nM |
| CC(C)(C)C(=O)Nc1ccc(-c2nc3c(F)cccc3o2)cc1 [Example 53, N-[4-(4-fluoro-1,3-benzoxazol-2-yl)phenyl]-2,2-dimethyl-propanamide] | 5.84 | 5.93 | > 100000 nM |
| O=C(Nc1ccc(-c2nc3c(F)cccc3o2)cc1)C1CCOC1 (stereo not drawn) [Example 54, N-[4-(4-fluoro-1,3-benzoxazol-2-yl)phenyl]tetrahydrofuran-3-carboxamide] | 5.57 | 5.55 | > 100000 nM |
| O=C(Nc1ccc(-c2nc3c(F)cccc3o2)cc1)C1CCS(=O)(=O)CC1 [Example 55, N-[4-(4-fluoro-1,3-benzoxazol-2-yl)phenyl]-1,1-dioxo-thiane-4-carboxamide] | 5.53 | 5.55 | > 100000 nM |
| CC1(C(=O)Nc2ccc(-c3nc4c(F)cccc4o3)cc2)CC(=O)C1 [Example 56, N-[4-(4-fluoro-1,3-benzoxazol-2-yl)phenyl]-1-methyl-3-oxo-cyclobutanecarboxamide] | 5.47 | 5.37 | > 100000 nM |
| O=C(Nc1ccc(-c2nc3c(F)cccc3o2)cc1)C1CS(=O)(=O)C1 [Example 57, N-[4-(4-fluoro-1,3-benzoxazol-2-yl)phenyl]-1,1-dioxo-thietane-3-carboxamide] | 5.09 | 5.04 | > 100000 nM |
| COC(=O)Nc1ccc(-c2nc3c(F)cccc3o2)cc1 [Example 58, methyl N-[4-(4-fluoro-1,3-benzoxazol-2-yl)phenyl]carbamate] | 5.22 | 5.06 | > 100000 nM |
| CCOC(=O)Nc1ccc(-c2nc3c(F)cccc3o2)cc1 [Example 59, ethyl N-[4-(4-fluoro-1,3-benzoxazol-2-yl)phenyl]carbamate] | 5.79 | 5.80 | > 100000 nM |
